Data published in patent publication US11780841B2, “3,6-methano-1H-pyrrolo[3,2-b]pyridine and 3,6-methano-1H-pyrrolo[3,2-c]pyridine compounds and medicaments using same” (priority 2018, dated 2023).
Like-named read-outs stand apart in the source and are kept apart here.

Test system: recombinant rabies virus 1088 strain expressing Gaussia Luciferase (GLuc) (1088/GLuc)
Assay type: cell-based

| Compound | IC50 (read-out: Anti-rabies activity) | IC50 (read-out: IC50) |
| --- | --- | --- |
| CC(C)C[C@@H]1[C@@H]2[C@@H]3CN[C@@]1(C(=O)NCc1ccc(O)cc1)C[C@@H]3CN2CC1CCCCC1 [IF-478] | < 5 µM | – |
| CC(C)CC1C2C3C=NC1(C(=O)NCc1ccccc1)CC3CN2Cc1ccc(Cl)cc1 (centres unmarked) [IIF-83] | < 5 µM | – |
| O=C(NCc1ccccc1)[C@@]12C[C@@H]3CN(Cc4cccc5ccccc45)[C@@H]([C@@H]3CN1)[C@H]2Cc1ccc(O)cc1 (relative stereo) [IF-505] | < 5 µM | – |
| CC(C)CC[C@@H]1[C@@H]2[C@@H]3CN[C@@]1(C(=O)NCCO)C[C@@H]3CN2Cc1ccc(F)cc1 [IF-490] | 10 to 30 µM | – |
| NC(=O)CN1C[C@@H]2C[C@@H]3CN[C@]2(C(=O)NCc2ccc(F)cc2)[C@@H]1[C@@H]3CCc1ccccc1 [IB-95] | < 5 µM | – |
| CC(C)C[C@@H]1[C@@H]2CN[C@@]3(C(=O)NCc4ccccc4)[C@@H](C2)CN(CC(C)C)[C@@H]13 (relative stereo) [IB-5] | 10 to 30 µM | 18.2 µM |
| O=C(NCCO)[C@@]12C[C@@H]3CN(Cc4cccc5ccccc45)[C@@H]([C@@H]3CN1)[C@H]2Cc1cccc2ccccc12 [IF-614] | 10 to 30 µM | – |
| CC(C)CN1C[C@H]2C[C@]3(C(=O)NCc4ccccc4)NC[C@H]2[C@H]1[C@H]3Cc1ccccc1 (relative stereo) [IF-1, (3S*,3aS*,6S*,7R*,7aS*)-N,7-dibenzyl-1-isobutyloctahydro-6H-3,6-methanopyrrolo[3,2-c]pyridine-6-carboxamide] | 10 to 30 µM | 12.6 µM |
| CC(C)C[C@@H]1[C@@H]2[C@@H]3CN[C@@]1(C(=O)NCc1ccccc1)C[C@@H]3CN2Cc1cccc(Cl)c1 [IF-840] | 5 to 10 µM | – |
| CC(C)CC[C@@H]1[C@@H]2[C@@H]3CN[C@@]1(C(=O)NCc1ccc(F)cc1)C[C@@H]3CN2CC(N)=O (relative stereo) [IF-95] | 10 to 30 µM | – |
| Cc1cccc(CNC(=O)[C@@]23C[C@@H]4CN(CC(C)C)[C@@H]([C@@H]4CN2)[C@H]3Cc2ccccc2)c1 (relative stereo) [IF-15] | 10 to 30 µM | 17.1 µM |
| O=C(NCc1ccc(O)cc1)[C@@]12C[C@@H]3CN(CC4CCCCC4)[C@@H]([C@@H]3CN1)[C@H]2CCc1ccccc1 [IF-475] | 10 to 30 µM | – |
| N=C(N)NCCCN1C[C@@H]2C[C@@H]3CN[C@]2(C(=O)NCCc2ccccc2)[C@@H]1[C@@H]3Cc1cccc2ccccc12 [IB-327] | 10 to 30 µM | – |
| Cc1ccc(CN2C[C@H]3C[C@@]4(C(=O)NCc5ccccc5)[C@H](CC(C)C)[C@@H]2[C@@H]3CN4C(=O)OCc2ccccc2)cc1 [IF-862] | 5 to 10 µM | – |
| CC(C)C[C@@H]1[C@@H]2[C@@H]3CN[C@@]1(C(=O)NCc1ccccc1)C[C@@H]3CN2Cc1ccccc1 (relative stereo) [IF-7] | 5 to 10 µM | 8.5 µM |
| NC(=O)CN1C[C@H]2C[C@]3(C(=O)NCc4ccc(O)cc4)NC[C@H]2[C@H]1[C@H]3Cc1cccc2ccccc12 [IF-137] | < 5 µM | – |
| CC(C)C[C@@H]1[C@H]2CN[C@@]3(C(=O)NCCCNC(=N)N)[C@@H](C2)CN(Cc2cccc4ccccc24)[C@@H]13 [IB-350] | 10 to 30 µM | – |
| CC(C)CCN1C[C@@H]2C[C@@H]3CN[C@]2(C(=O)NCc2ccc(F)cc2)[C@@H]1[C@@H]3Cc1ccc(O)cc1 [IB-481] | < 5 µM | – |
| CCC1N[C@@]2(C(=O)NCc3ccccc3)C[C@@H]3CN(CC(C)C)[C@@H]([C@H]13)[C@H]2Cc1ccccc1 (relative stereo) [IF-69] | 10 to 30 µM | 16.5 µM |
| O=C(O)CCNC(=O)[C@@]12C[C@@H]3CN(CCO)[C@@H]([C@@H]3CN1)[C@H]2Cc1cccc2ccccc12 [IF-444] | 10 to 30 µM | – |
| CC(C)CC1C2C=NC3(C(=O)NCc4ccccc4)C(C2)CN(Cc2ccc(OC(F)(F)F)cc2)C13 (centres unmarked) [IIB-96] | 5 to 10 µM | – |
| CC(C)CCN1C[C@H]2C[C@]3(C(=O)NCC(C)C)NC[C@H]2[C@H]1[C@H]3Cc1ccccc1 [IF-735] | 10 to 30 µM | – |
| CC(C)C[C@@H]1[C@@H]2[C@@H]3CN[C@@]1(C(=O)NCCO)C[C@@H]3CN2CC1CCCCC1 [IF-606] | 10 to 30 µM | – |
| CC(C)CC[C@@H]1[C@H]2CN[C@@]3(C(=O)NCc4ccccc4)[C@@H](C2)CN(Cc2ccc(O)cc2)[C@@H]13 [IB-786] | 10 to 30 µM | – |
